The values below come from patent US9440943B2, “Tricyclic sulfone compounds and methods of making and using same” (Zafgen, Inc., priority 2012, dated 2016).

The target of this experiment is T1, Human recombinant MetAP2 (Homo sapiens, UniProt P50579).
T1 construct: made in house; host or cells: Sf9 insect cells
Description: recombinant human MetAP2 inhibition assay (MAS substrate, amino acid oxidase/Amplex red fluorescence). Format: biochemical. As to conditions: manganese enzyme, 30 minutes at 25° C., pH 7.5, 0.75 mM MAS substrate, 1% DMSO. On the procedure: Compounds are tested for their capacity to inhibit recombinant human MetAP2 activity using the following assay.
Human recombinant MetAP2 expressed in Sf9 cells followed by affinity purification and EDTA treatment to remove endogenous active site cation was dialysed against MnCl2 to produce the manganese enzyme used in the assay. The assay was carried out for 30 minutes at 25° C. in 50 mM HEPES buffer containing 100 mM NaCl, at pH 7.5. The presence of 0.75 mM Methionine-Alanine-Serine (MAS) substrate and 50 μg/mL amino acid oxidase using a dilution of purified MetAP2 gives >3-fold signal:noise. Cleavage of the substrate by MetAP2 and oxidation of free methionine by amino acid oxidase was detected and quantified using fluorescence generated by Amplex red (10-acetyl-3,7-dihydroxyphenoxazine) in combination with horseradish peroxidase which detects H2O2 released during the oxidation step. The fluorescent signal was detected using a multiwell fluorimeter. Compounds were diluted in DMSO prior to addition to assay buffer, the final DMSO concentration in the assay being 1%.
The IC50 is defined as the concentration at which a given compound achieves 50% inhibition of control. IC50 values are calculated using the XLfit software package (version 2.0.5).

T1 sequence (P50579 whole entry): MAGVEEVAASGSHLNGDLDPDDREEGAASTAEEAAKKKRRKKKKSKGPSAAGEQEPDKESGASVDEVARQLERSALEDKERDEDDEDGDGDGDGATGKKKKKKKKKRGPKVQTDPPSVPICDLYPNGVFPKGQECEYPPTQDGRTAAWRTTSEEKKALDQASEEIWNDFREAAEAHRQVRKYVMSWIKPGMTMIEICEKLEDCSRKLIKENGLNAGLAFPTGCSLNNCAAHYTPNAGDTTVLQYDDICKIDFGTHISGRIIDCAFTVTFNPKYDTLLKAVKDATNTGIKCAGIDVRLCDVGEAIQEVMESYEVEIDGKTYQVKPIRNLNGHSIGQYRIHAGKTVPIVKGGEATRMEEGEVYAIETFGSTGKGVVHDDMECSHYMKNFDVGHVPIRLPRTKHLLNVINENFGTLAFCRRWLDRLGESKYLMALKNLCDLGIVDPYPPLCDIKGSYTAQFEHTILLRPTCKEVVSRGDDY

In the case of `CCN(CC)C/C=C\c1cc(F)ccc1S(=O)(=O)Cc1ccc2c(c1C(=O)O)OC[C@H]1C[C@@H]21` (racemic) [Example 1, Cis-(1aRS,7bSR)-5-[2-((Z)-3-diethylaminoprop-1-enyl)-4-fluoro-benzenesulfonylmethyl]-1,1a,2,7b-tetrahydrocyclopropa[c]chromene-4-carboxylic acid], the IC50 (usually the concentration needed to halve the response being measured) is greater than 100 nM. For `CCN(CC)C/C=C\c1cc(F)ccc1S(=O)(=O)Cc1ccc2c(c1C(=O)O)OC[C@@H]1C[C@H]21` [Example 2], the half-inhibitory concentration (IC50) is greater than 100 nM.
